Data taken from patent US20230277612A1, “SAPONIN DERIVATIVES FOR USE IN MEDICINE” (priority 2020, published 2023).
Read-outs that look alike come from different tables or passages of the source.

How the values were obtained:
A431 cells = experiment: cells; type: cell-based
Description: (§1) (FIGS. 66a and 66B). Next toxicity was determined, for this the modified saponins were titrated on HeLa and A431 cells. […] Next toxicity was determined, for this the modified saponins were titrated on HeLa and A431 cells.

HeLa cells = experiment: cells; type: cell-based
Description: as §1

human red blood cells = experiment: cells; type: cell-based
Description: Red blood cells (RBCs) were isolated from a buffy coat using a Ficoll gradient. The obtained RBC pellet (˜4-5 ml) was washed 2× with 50 ml DPBS (without Ca^2+/Mg^2+, PAN-Biotech GmbH). Cells were pelleted by centrifugation for 10 min, 800×g at RT. RBC were counted and resuspended at 500.000.000 c/ml in DPBS (without Ca^2+/Mg^2+), based on total cell count.
(§2) Saponin dilutions were prepared in DPBS (with Ca^2+/Mg^2+, PAN-Biotech GmbH), at 1.11× final strength. For positive lysis control a 0.02% Triton-X100 solution was prepared in DPBS^+/+. Of all compound solutions 135 μl was dispensed/well in a 96 well V-bottom plate. To this 15 μl RBC suspension was added and mixed shortly (10 sec-600 rpm). The plate was incubated 30 min at RT, with gentle agitation. Afterwards the plate was spun for 10 min at 800×g to pellet the RBC and 100-120 μl supernatant was transferred to a standard 96 wp (96 well-plate).
as §2, with “DPBS+/+.” for “DPBS^+/+.”

[1] = Critical micellar concentration (CMC) by ANS fluorescence; type: physicochemical; conditions: for CMC: Table A7, determined in PBS
Description: The critical micellar concentration (CMC) of saponins derived from Saponaria officinalis (SO) (Table A7) and derived from Quillaja saponaria (QS) (Table A8, and Table A9) was determined by the method of DeVendittis et al. (A fluorimetric method for the estimation of the critical micelle concentration of surfactants, Analytical Biochemistry, Volume 115, Issue 2, August 1981, Pages 278-286) as follows:
(§3) The emission spectrum of 8-Anilinonaphthalene-1-sulfonic acid (ANS) in either purified water (MQ) or PBS (Dulbecco's PBS+/+) was determined at dry weight concentrations of saponins ranging from 1 to 1400 pM to cover the range below and above the CMC. Above the CMC, the fluorescence yield of ANS increases and the wavelength of maximum emission decreases due to portioning of the fluorescent dye into micelles. Fluorescence yields were recorded on a Fluoroskan Ascent FL (Thermo Scientific) at an excitation wavelength of 355 nm, and an emission wavelength of 460 nm. 6 μg at a concentration of 75.86 pM of ANS were used per sample and measurement.
The critical micellar concentration (CMC) of saponins was determined by the method of DeVendittis et al. (A fluorimetric method for the estimation of the critical micelle concentration of surfactants, Analytical Biochemistry, Volume 115, Issue 2, August 1981, Pages 278-286) as follows:
as §3, with “μM” for “pM”

[2] = Table A12, read-out: IC50 nM (Toxicity)
[3] = read-out: IC50 hemolytic activity
[4] = Homo sapiens, HeLa, Table A5, saponin alone, read-out: IC50 nM (Toxicity)
[5] = Homo sapiens, HeLa, saponin alone, read-out: IC50 toxicity

Molecule: Aescin [reference compound]
- IC50 (A431 cells; saponin alone, read-out: IC50 toxicity): > 30000 nM
- IC50 (HeLa cells; [2]): > 30000 nM
- IC50 (human red blood cells; [3]): 10000 nM

Molecule: CC1OC(OC2C(C)OC(OC(=O)[C@]34CCC(C)(C)CC3C3=CCC5[C@@]6(C)CC[C@H](OC7OC(C(=O)O)C(O)C(OC8OCC(O)C(O)C8O)C7OC7OC(CO)C(O)C(O)C7O)[C@@](C)(CO)C6CC[C@@]5(C)[C@]3(C)C[C@H]4O)C(OC3OC(C)C(OC4OCC(O)C(OC5OC(CO)C(O)C(O)C5O)C4O)C(O)C3O)C2O)C(O)C(OC2OCC(O)C(O)C2O)C1O (some centres unmarked) [SO1861-(Ald-OH)-(Ac—OH)]
- IC50 (A431 cells; Table A6, saponin alone, read-out: IC50 nM (Toxicity)): > 100000 nM
- IC50 (HeLa cells; Table A5, saponin alone, read-out: IC50 nM (Toxicity)): > 100000 nM
- IC50 (human red blood cells; Table A5, read-out: IC50 nM (hemolysis)): 200000 nM
- IC50 (human red blood cells; Table A6, read-out: IC50 nM (hemolysis)): 200000 nM
- IC50 (human red blood cells; [3]): 200000 nM
- CMC [1]: >280 µM

Molecule: CC(=O)OC1C(C)OC(OC2C(C)OC(OC(=O)[C@]34CCC(C)(C)CC3C3=CCC5[C@@]6(C)CC[C@H](OC7OC(C(=O)O)C(O)C(OC8OCC(O)C(O)C8O)C7OC7OC(CO)C(O)C(O)C7O)[C@@](C)(/C=N/NC(=O)CCCCCN7C(=O)C[C@H](SCCO)C7=O)C6CC[C@@]5(C)[C@]3(C)C[C@H]4O)C(OC3OC(C)C(OC4OCC(O)C(OC5OC(CO)C(O)C(O)C5O)C4O)C(O)C3O)C2O)C(O)C1OC1OCC(O)C(O)C1O (some centres unmarked) [SO1861-Ald-EMCH-blocked]
- IC50 (HeLa cells; [4]): > 100000 nM
- IC50 (HeLa cells; [5]): > 100000 nM
- IC50 (human red blood cells; Homo sapiens, Erythrocyte, Table A5, read-out: IC50 nM (hemolysis)): 300000 nM
- IC50 (human red blood cells; Homo sapiens, Erythrocyte, Table A6, read-out: IC50 nM (hemolysis)): 300000 nM
- IC50 (human red blood cells; Homo sapiens, Erythrocyte, read-out: IC50 hemolytic activity): 300000 nM
- CMC [1]: 50 ± 5 µM

Molecule: CC(=O)OC1C(C)OC(OC2C(C)OC(OC(=O)[C@]34CCC(C)(C)CC3C3=CCC5[C@@]6(C)CC[C@H](OC7OC(C(=O)NCCN8C(=O)C=CC8=O)C(O)C(OC8OCC(O)C(O)C8O)C7OC7OC(CO)C(O)C(O)C7O)[C@@](C)(C=O)C6CC[C@@]5(C)[C@]3(C)C[C@H]4O)C(OC3OC(C)C(OC4OCC(O)C(OC5OC(CO)C(O)C(O)C5O)C4O)C(O)C3O)C2O)C(O)C1OC1OCC(O)C(O)C1O (some centres unmarked) [SO1861-Glu-AEM]
- IC50 (A431 cells; Homo sapiens, A-431, Table A6, saponin alone, read-out: IC50 nM (Toxicity)): > 100000 nM
- IC50 (A431 cells; Homo sapiens, A-431, text, saponin alone, read-out: IC50 toxicity): > 100000 nM
- IC50 (HeLa cells; [4]): > 100000 nM
- IC50 (HeLa cells; [5]): > 100000 nM
- CMC [1]: 45 ± 5 µM

Molecule: CC[C@H](C)[C@H](C[C@H](O)CC(=O)OC1C(C)OC(OC(=O)[C@]23CCC(C)(C)CC2C2=CCC4[C@@]5(C)CC[C@H](OC6OC(C(=O)NC(C)(CO)CO)C(O)C(OC7OCC(O)C(O)C7O)C6OC6OC(CO)C(O)C(O)C6O)[C@@](C)(/C=N/NC(=O)CCCCCN6C(=O)C=CC6=O)C5CC[C@@]4(C)[C@]2(C)C[C@H]3O)C(OC2OC(C)C(OC3OCC(O)C(OC4OCC(O)(CO)C4O)C3O)C(O)C2O)C1O)OC(=O)C[C@@H](O)C[C@H](OC1OC(CO)C(O)C1O)[C@@H](C)CC (some centres unmarked) [QS21-(Ald-EMCH)-(Glu-AMPD)]
- IC50 (HeLa cells; [2]): > 30000 nM
- IC50 (human red blood cells; Table A12, read-out: IC50 nM (hemolysis)): > 300000 nM
- IC50 (human red blood cells; [3]): > 300000 nM

Molecule: CC(=O)OC1C(C)OC(OC2C(C)OC(OC(=O)[C@]34CCC(C)(C)CC3C3=CCC5[C@@]6(C)CC[C@H](OC7OC(C(=O)NC(C)(CO)CO)C(O)C(OC8OCC(O)C(O)C8O)C7OC7OC(CO)C(O)C(O)C7O)[C@@](C)(C=O)C6CC[C@@]5(C)[C@]3(C)C[C@H]4O)C(OC3OC(C)C(OC4OCC(O)C(OC5OC(CO)C(O)C(O)C5O)C4O)C(O)C3O)C2O)C(O)C1OC1OC(C)C(O)C(O)C1O (some centres unmarked) [SO1861-Glu-AMPD]
- CMC [1]: 50 ± 5 µM

Molecule: CC(=O)OC1C(C)OC(OC2C(C)OC(OC(=O)[C@]34CCC(C)(C)CC3C3=CCC5[C@@]6(C)CC[C@H](OC7OC(C(=O)O)C(O)C(OC8OCC(O)C(O)C8O)C7OC7OC(CO)C(O)C(O)C7O)[C@@](C)(C=O)C6CC[C@@]5(C)[C@]3(C)C[C@H]4O)C(OC3OC(C)C(OC4OCC(O)C(OC5OCC(O)C(O)C5O)C4O)C(O)C3O)C2O)C(O)C1OC1OCC(O)C(O)C1O (some centres unmarked) [SO1832, reference compound]
- IC50 (human red blood cells; [3]): ~10000 nM

Molecule: CC(=O)OC1C(C)OC(OC2C(C)OC(OC(=O)C34CCC(C)(C)CC3C3=CCC5C6(C)CCC(OC7OC(C(=O)O)C(O)C(OC8OCC(O)C(O)C8O)C7OC7OC(CO)C(O)C(O)C7O)C(C)(C=NNC(=O)CCCCCN7C(=O)C=CC7=O)C6CCC5(C)C3(C)CC4O)C(OC3OC(C)C(OC4OCC(O)C(OC5OC(CO)C(O)C(O)C5O)C4O)C(O)C3O)C2O)C(O)C1OC1OCC(O)C(O)C1O (centres unmarked) [Molecule 2]
- CMC compared to corresponding underivatised saponin [1]: increased CMC
